Columns and labels:
Assay in all cases: relative viability (nuclei count vs DMSO), 5 days (fraction); higher = more cells survive
Ibrutinib + Pictilisib = compound: C=CC(=O)N1CCC[C@@H](n2nc(-c3ccc(Oc4ccccc4)cc3)c3c(N)ncnc32)C1 [Ibrutinib] + CS(=O)(=O)N1CCN(Cc2cc3nc(-c4cccc5[nH]ncc45)nc(N4CCOCC4)c3s2)CC1 [Pictilisib] (partner 1 µM)
In short: (§1)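 Values are medians from duplicate plates. Each reflects relative viability, defined as the nuclei count of treated wells over that of vehicle wells. Lung cancer cell lines in 1536-well plates were pin-tool dosed one day after seeding with one drug alone or with a fixed anchor-drug dose plus five library-drug doses (not always all listed) in √10 steps, then fixed, stained and imaged at 4× after 5 days.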

PAC-1 + Palbociclib = compound: C=CCc1cccc(/C=N/NC(=O)CN2CCN(Cc3ccccc3)CC2)c1O [PAC-1] + CC(=O)c1c(C)c2cnc(Nc3ccc(N4CCNCC4)cn3)nc2n(C2CCCC2)c1=O [Palbociclib] (partner 0.5 µM)
In short: as §1

BMX-IN-1 + Alpelisib = compound: C=CC(=O)Nc1cc(-n2c(=O)ccc3cnc4ccc(-c5ccc(NS(C)(=O)=O)cc5)cc4c32)ccc1C [BMX-IN-1] + Cc1nc(NC(=O)N2CCC[C@H]2C(N)=O)sc1-c1ccnc(C(C)(C)C(F)(F)F)c1 [Alpelisib] (partner 2 µM)
In short: as §1

BMX-IN-1 + OSI-027 = compound: C=CC(=O)Nc1cc(-n2c(=O)ccc3cnc4ccc(-c5ccc(NS(C)(=O)=O)cc5)cc4c32)ccc1C [BMX-IN-1] + COc1cccc2cc(-c3nc([C@H]4CC[C@H](C(=O)O)CC4)n4ncnc(N)c34)[nH]c12 [OSI-027] (partner 0.5 µM)
In short: as §1

| Cell Line | relative viability (Ibrutinib + Pictilisib; first compound 0.005 µM) | relative viability (Ibrutinib + Pictilisib; first compound 0.01581 µM) | relative viability (Ibrutinib + Pictilisib; first compound 0.05 µM) | relative viability (Ibrutinib + Pictilisib; first compound 0.1581 µM) | relative viability (Ibrutinib + Pictilisib; first compound 0.5 µM) | relative viability (PAC-1 + Palbociclib; first compound 0.02 µM) | relative viability (PAC-1 + Palbociclib; first compound 0.06325 µM) | relative viability (PAC-1 + Palbociclib; first compound 0.2 µM) | relative viability (PAC-1 + Palbociclib; first compound 2 µM) | relative viability (BMX-IN-1 + Alpelisib; first compound 0.02 µM) | relative viability (BMX-IN-1 + Alpelisib; first compound 0.2 µM) | relative viability (BMX-IN-1 + Alpelisib; first compound 0.6325 µM) | relative viability (BMX-IN-1 + Alpelisib; first compound 2 µM) | relative viability (BMX-IN-1 + OSI-027; first compound 0.02 µM) | relative viability (BMX-IN-1 + OSI-027; first compound 0.2 µM) | relative viability (BMX-IN-1 + OSI-027; first compound 0.6325 µM) | relative viability (BMX-IN-1 + OSI-027; first compound 2 µM) |
| --- | --- | --- | --- | --- | --- | --- | --- | --- | --- | --- | --- | --- | --- | --- | --- | --- | --- |
| NCI-H1975 | 0.264 | 0.271 | 0.234 | 0.313 | 0.105 | 0.629 | 0.605 | 0.52 | 0.725 | 0.714 | 0.686 | 0.664 | 0.592 | 0.873 | 0.741 | 1.04 | 0.696 |
| NCI-H1993 | 0.777 | 0.7 | 0.139 | – | 0.871 | 0.647 | 0.656 | 0.757 | 0.646 | 0.811 | 0.752 | – | 0.668 | 0.546 | 0.6 | 0.489 | 0.476 |
| NCI-H2009 | 0.593 | 0.846 | 0.742 | 0.468 | 0.759 | 0.203 | 0.231 | 0.236 | 0.239 | 1.05 | 1.33 | 1.25 | 1.18 | 0.689 | 0.651 | 0.639 | 0.386 |
| NCI-H2023 | 0.165 | 0.308 | 0.207 | 0.25 | 0.206 | 0.343 | 0.353 | 0.355 | 0.33 | 0.617 | 0.675 | 0.686 | 0.627 | 0.448 | 0.434 | 0.418 | 0.244 |
| NCI-H2085 | 0.432 | 0.473 | 0.48 | 0.369 | 0.417 | 0.487 | 0.462 | 0.428 | 0.504 | 0.944 | 0.981 | 0.834 | 0.917 | 0.743 | 0.748 | 0.696 | 0.745 |
| NCI-H2087 | 0.686 | 0.878 | 0.973 | 0.339 | 0.862 | 0.241 | 0.241 | 0.285 | 0.214 | 1.12 | 1.28 | 1.32 | 1.24 | 0.624 | 0.712 | 0.589 | 0.485 |
| NCI-H2126 | – | 0.469 | 0.454 | 0.399 | 0.43 | 0.335 | 0.369 | 0.38 | 0.341 | 0.763 | 0.748 | 0.827 | 0.77 | 0.696 | 0.703 | 0.872 | 0.664 |
| NCI-H2170 | 0.234 | 0.312 | 0.243 | 0.261 | 0.169 | 0.417 | 0.39 | 0.376 | 0.343 | 0.91 | 0.859 | 0.921 | 0.821 | 0.735 | 0.803 | 0.79 | 0.769 |
| NCI-H2228 | 0.316 | 0.486 | 0.276 | 0.433 | 0.386 | 1.03 | 0.921 | 0.804 | 0.797 | 0.906 | 1.04 | 1.16 | 0.822 | 0.595 | 0.673 | 0.789 | 0.529 |
| NCI-H2347 | 0.648 | 0.672 | 0.587 | 0.299 | 0.535 | 0.499 | 0.435 | 0.477 | 0.414 | 1.25 | 1.07 | 1.16 | 0.974 | 0.39 | 0.356 | 0.525 | 0.38 |
| NCI-H2405 | 0.33 | 0.384 | 0.282 | – | 0.485 | 0.53 | 0.502 | 0.502 | 0.509 | 0.816 | 0.755 | 0.747 | 0.766 | 0.647 | 0.63 | 0.605 | 0.634 |
| NCI-H3122 | 0.563 | 0.61 | 0.69 | 0.375 | 0.533 | 0.188 | 0.179 | 0.198 | 0.214 | 0.815 | 0.879 | 0.657 | 0.812 | 1.23 | 1.1 | 1.3 | 1.1 |
| PC-3 [JPC-3] | 0.621 | 0.685 | 0.686 | 0.531 | 0.528 | 0.567 | 0.502 | 0.535 | 0.514 | 1.17 | 1.06 | 1.09 | 1.09 | 0.783 | 0.887 | 0.84 | 0.793 |
| PC-14 | 0.72 | 0.621 | 0.558 | 0.88 | 0.101 | 0.586 | 0.504 | 0.487 | 0.606 | 1.08 | 1.03 | 0.981 | 0.983 | 1.46 | 1.19 | 0.994 | 0.0726 |
| RERF-LC-KJ | 0.482 | 0.518 | 0.46 | 0.548 | 0.441 | 1.13 | 1.02 | 0.997 | 0.912 | 0.787 | 0.868 | 0.856 | 0.899 | 0.626 | 0.612 | 0.587 | 0.278 |
| SK-LU-1 | 0.381 | 0.509 | 0.542 | 0.55 | 0.549 | 0.391 | 0.41 | 0.394 | 0.369 | 1 | 1.05 | 0.964 | 1.06 | 0.345 | 0.316 | 0.42 | 0.298 |
| SW 1573 | 0.416 | 0.466 | 0.478 | 0.414 | 0.503 | 0.381 | 0.292 | 0.455 | 0.474 | 0.913 | 0.882 | 0.8 | 0.798 | 0.882 | 0.778 | 0.736 | 0.0649 |
| UMC-11 | 0.31 | 0.781 | 0.795 | 0.777 | 0.784 | 0.339 | 0.322 | 0.371 | 0.277 | 1.16 | 1.28 | 1.08 | 0.98 | 0.571 | 0.578 | 0.491 | 0.488 |
